Data: US12404265B2, “Substituted pyridine derivatives as SARM1 inhibitors” (Nura Bio, Inc., priority 2020, dated 2025)

Biological target: T1, human SARM1(50-724) (Homo sapiens, UniProt Q6SZW1)
T1 construct: 40 nM human SARM1(50-724)
T1 sequence (Q6SZW1 50-724): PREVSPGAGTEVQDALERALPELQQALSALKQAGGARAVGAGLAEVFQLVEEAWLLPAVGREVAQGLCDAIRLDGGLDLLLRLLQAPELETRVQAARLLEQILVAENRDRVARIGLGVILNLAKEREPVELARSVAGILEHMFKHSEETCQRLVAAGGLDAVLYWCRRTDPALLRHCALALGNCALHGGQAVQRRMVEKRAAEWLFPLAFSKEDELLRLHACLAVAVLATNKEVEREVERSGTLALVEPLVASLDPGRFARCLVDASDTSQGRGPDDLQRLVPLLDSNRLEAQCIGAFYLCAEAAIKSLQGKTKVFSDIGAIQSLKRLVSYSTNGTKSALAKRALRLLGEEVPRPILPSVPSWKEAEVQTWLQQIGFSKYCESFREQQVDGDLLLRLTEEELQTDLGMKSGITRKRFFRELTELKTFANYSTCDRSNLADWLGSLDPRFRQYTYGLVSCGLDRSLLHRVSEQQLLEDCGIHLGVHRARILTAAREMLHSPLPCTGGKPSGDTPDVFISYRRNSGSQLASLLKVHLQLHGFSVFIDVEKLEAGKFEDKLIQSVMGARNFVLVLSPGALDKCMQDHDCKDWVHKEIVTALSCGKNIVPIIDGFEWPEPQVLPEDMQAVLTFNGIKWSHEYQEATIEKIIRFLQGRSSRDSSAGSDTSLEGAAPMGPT
Test: SARM1 NADase biochemical assay (HPLC of NAD and NAM)
Conditions: 40 nM human SARM1(50-724), 0.3 mM NMN, 20 μM NAD, 60 minutes room temperature; dose-response from 100 μM, 1:3 dilution
Method: Each reaction was run at a volume of 20 μL containing 50 μM compound (dissolved in DMSO; final concentration of DMSO is 1% v/v), 40 nM human SARM1(50-724), 0.3 mM NMN, 20 μM NAD, 1 mM TCEP, 25 mM HEPES pH 7.4, 10 mM KCl and 10 mM MgCl2. The reaction was incubated at room temperature for 60 minutes and quenched with 20 μL of 0.4% formic acid. The samples were run on Agilent HPLC 1260 Infinity II with Synergi 2.5 μM Fusion-RP 100 Å (100×3.0 mm) LC column from Phenomenex. Total run time for each sample was 4 minutes. The run was isocratic with 1.5% methanol in 40 mM ammonium acetate pH 6.0. Samples were run at a flow rate of 0.8 mL/min at 55° C. Peak areas of NAD and NAM were determined using OpenLAB CDS (Chem Station edition) software. For dose-response, the compound was diluted serially 1:3 in DMSO and added to the reaction starting at a final compound concentration of 100 μM in 1% DMSO.

Structure (SMILES)	IC50
Cc1c(-c2ccncc2)n[nH]c1NC(=O)COc1ccc(Cl)cc1 [Example 62, 2-(4-Chlorophenoxy)-N-(4-methyl-3-(pyridin-4-yl)-1H-pyrazol-5-yl)acetamide]	< 1000 nM
Cc1c(-c2ccncc2)n[nH]c1NC(=O)CSc1ccc(Cl)cc1 [Example 63, 2-((4-Chlorophenyl)thio)-N-(4-methyl-3-(pyridin-4-yl)-1H-pyrazol-5-yl)acetamide]	< 1000 nM
Cc1c(-c2ccncc2)n[nH]c1NC(=O)CCc1ccc(Cl)c(F)c1 [Example 64, 3-(4-Chloro-3-fluorophenyl)-N-(4-methyl-3-(pyridin-4-yl)-1H-pyrazol-5-yl)propanamide]	< 1000 nM
Cc1c(-c2ccncc2)n[nH]c1NC(=O)CCc1cc(F)c(C#N)c(F)c1 [Example 65, 3-(4-Cyano-3,5-difluorophenyl)-N-(4-methyl-3-(pyridin-4-yl)-1H-pyrazol-5-yl)propanamide]	< 1000 nM
Cc1c(-c2ccncc2)n[nH]c1NC(=O)CC1CCCc2ccccc21 (stereo not drawn) [Example 66, N-[4-Methyl-3-(pyridin-4-yl)-1H-pyrazol-5-yl]-2-(1,2,3,4-tetrahydronaphthalen-1-yl)acetamide]	1000 to 10000 nM
Cc1c(-c2ccncc2)n[nH]c1NC(=O)CC1CCc2cc(Cl)ccc21 (stereo not drawn) [Example 67, 2-(5-Chloro-2,3-dihydro-1H-inden-1-yl)-N-[4-methyl-3-(pyridin-4-yl)-1H-pyrazol-5-yl]acetamide]	< 1000 nM
Cc1c(-c2ccncc2)n[nH]c1NC(=O)CC1CCCc2cc(Cl)ccc21 (stereo not drawn) [Example 68, 2-(6-Chloro-1,2,3,4-tetrahydronaphthalen-1-yl)-N-[4-methyl-3-(pyridin-4-yl)-1H-pyrazol-5-yl]acetamide]	1000 to 10000 nM
Cc1c(-c2ccncc2)n[nH]c1NC(=O)/C(F)=C(\F)c1ccc(Cl)cc1 [Example 69, (E)-3-(4-chlorophenyl)-2,3-difluoro-N-(4-methyl-3-(pyridin-4-yl)-1H-pyrazol-5-yl)acrylamide]	1000 to 10000 nM
Cc1c(-c2ccncc2)n[nH]c1NC(=O)C#Cc1ccc(Cl)cc1 [Example 72, 3-(4-Chlorophenyl)-N-(4-methyl-3-(pyridin-4-yl)-1H-pyrazol-5-yl)propiolamide]	1000 to 10000 nM
Cc1c(-c2ccncc2)n[nH]c1NC(=O)CCc1cc(Cl)cs1 [Example 73]	< 1000 nM
Cc1c(-c2ccncc2)n[nH]c1NC(=O)CCc1ccc(Cl)s1 [Example 74]	< 1000 nM
Cc1c(-c2ccncc2)n[nH]c1NC(=O)CCc1cnc(Cl)s1 [Example 75, 3-(2-Chlorothiazol-5-yl)-N-(4-methyl-3-(pyridin-4-yl)-1H-pyrazol-5-yl)propanamide]	< 1000 nM
Cc1c(-c2ccncc2)n[nH]c1NC(=O)CCc1ncc(Cl)s1 [Example 76]	1000 to 10000 nM
Cc1c(-c2ccncc2)n[nH]c1NC(=O)CCn1cc(Cl)cn1 [Example 77, 3-(4-Chloro-1H-pyrazol-1-yl)-N-(4-methyl-3-(pyridin-4-yl)-1H-pyrazol-5-yl)propenamide]	1000 to 10000 nM
Cc1c(-c2ccncc2)n[nH]c1NC(=O)CCc1cc(Cl)no1 [Example 78, 3-(3-Chloroisoxazol-5-yl)-N-(4-methyl-3-(pyridin-4-yl)-1H-pyrazol-5-yl)propanamide]	< 1000 nM
Cc1c(-c2ccncc2)n[nH]c1NC(=O)CNc1ccc(Cl)cc1 [Example 79, 2-((4-Chlorophenyl)amino)-N-(4-methyl-3-(pyridin-4-yl)-1H-pyrazol-5-yl)acetamide]	< 1000 nM
Cc1c(-c2ccncc2)n[nH]c1NC(=O)C(F)(F)Cc1ccc(Cl)cc1 [Example 80, 3-(4-Chlorophenyl)-2,2-difluoro-N-(4-methyl-3-(pyridin-4-yl)-1H-pyrazol-5-yl)propanamide]	1000 to 10000 nM
Cc1c(NC(=O)CSc2ccc(Cl)cc2)cnn1-c1ccncc1 [Example 81, 2-((4-Chlorophenyl)thio)-N-(5-methyl-1-(pyridin-4-yl)-1H-pyrazol-4-yl)acetamide]	< 1000 nM
Cc1c(NC(=O)CCc2ccc(Cl)nc2)cnn1-c1ccncc1 [Example 82]	< 1000 nM
Cc1c(NC(=O)CCc2cc(F)c(Cl)c(F)c2)cnn1-c1ccncc1 [Example 83, 3-(4-Chloro-3,5-difluorophenyl)-N-(5-methyl-1-(pyridin-4-yl)-1H-pyrazol-4-yl)propanamide]	< 1000 nM

Structure (SMILES)	IC50
Cc1c(NC(=O)CCc2cc(F)c(F)c(F)c2)cnn1-c1ccncc1 [Example 84, N-(5-Methyl-1-(pyridin-4-yl)-1H-pyrazol-4-yl)-3-(3,4,5-trifluorophenyl)propanamide]	< 1000 nM
Cc1c(NC(=O)COc2ccc(Cl)cc2)cnn1-c1ccncc1 [Example 85, 2-(4-Chlorophenoxy)-N-(5-methyl-1-(pyridin-4-yl)-1H-pyrazol-4-yl)acetamide]	1000 to 10000 nM
Cc1c(NC(=O)CCc2ccc(Cl)cc2)cnn1-c1ccncc1 [Example 86]	< 1000 nM
O=C(CCc1cc(F)c(Cl)c(F)c1)Nc1cnn(-c2ccncc2)c1 [Example 88, 3-(4-Chloro-3,5-difluorophenyl)-N-[1-(pyridin-4-yl)-1H-pyrazol-4-yl]propanamide]	< 1000 nM
O=C(CCc1ccc(Cl)cc1)Nc1cnn(-c2ccncc2)c1 [Example 89, 3-(4-Chlorophenyl)-N-(1-(pyridin-4-yl)-1H-pyrazol-4-yl)propanamide]	1000 to 10000 nM
O=C(CCc1ccc(Cl)cc1)Nc1cnn(-c2ccncc2)c1Cl [Example 90]	< 1000 nM
O=C(CCc1cc(F)c(Cl)c(F)c1)Nc1cnn(-c2ccncc2)c1Cl [Example 91, N-(5-Chloro-1-(pyridin-4-yl)-1H-pyrazol-4-yl)-3-(4-chloro-3,5-difluorophenyl)propanamide]	< 1000 nM
O=C(CCc1cc(F)c(F)c(F)c1)Nc1cnn(-c2ccncc2)c1Cl [Example 92, N-(5-Chloro-1-(pyridin-4-yl)-1H-pyrazol-4-yl)-3-(3,4,5-trifluorophenyl)propanamide]	< 1000 nM
N#Cc1c(F)cc(CCC(=O)Nc2cnn(-c3ccncc3)c2Cl)cc1F [Example 93, N-(5-Chloro-1-(pyridin-4-yl)-1H-pyrazol-4-yl)-3-(4-cyano-3,5-difluorophenyl)propanamide]	< 1000 nM
N#Cc1ccc(CCC(=O)Nc2cnn(-c3ccncc3)c2Cl)cc1F [Example 94, N-(5-Chloro-1-(pyridin-4-yl)-1H-pyrazol-4-yl)-3-(4-cyano-3-fluorophenyl)propanamide]	< 1000 nM
O=C(CCc1ccc(Cl)cc1)Nc1cnn(-c2ccncc2)c1C(F)(F)F [Example 95, 3-(4-Chlorophenyl)-N-(1-(pyridin-4-yl)-5-(trifluoromethyl)-1H-pyrazol-4-yl)propanamide]	< 1000 nM
O=C(CCc1ccc(Cl)cc1)Nc1[nH]nc(-c2ccncc2)c1Cl [Example 96, N-(4-Chloro-3-(pyridin-4-yl)-1H-pyrazol-5-yl)-3-(4-chlorophenyl)propanamide]	< 1000 nM
O=C(CCc1cc(F)c(Cl)c(F)c1)Nc1[nH]nc(-c2ccncc2)c1Cl [Example 97, 3-(4-Chloro-3,5-difluorophenyl)-N-(4-chloro-3-(pyridin-4-yl)-1H-pyrazol-5-yl)propanamide]	< 1000 nM
O=C(CCc1ccc(Cl)cc1)Nc1cc(-c2ccncc2)n[nH]1 [Example 98, 3-(4-Chlorophenyl)-N-(3-(pyridin-4-yl)-1H-pyrazol-5-yl)propanamide]	< 1000 nM
O=C(CCc1ccc2c(c1)OCO2)Nc1cc(-c2ccncc2)n[nH]1 [Example 99, 3-(Benzo[d][1,3]dioxol-5-yl)-N-(3-(pyridin-4-yl)-1H-pyrazol-5-yl)propanamide]	1000 to 10000 nM
O=C(CCc1cccc(Cl)c1)Nc1cc(-c2ccncc2)n[nH]1 [Example 100, 3-(3-Chlorophenyl)-N-(3-(pyridin-4-yl)-1H-pyrazol-5-yl)propanamide]	1000 to 10000 nM
O=C(CCc1cc(F)c(Cl)c(F)c1)Nc1cc(-c2ccncc2)n[nH]1 [Example 101, 3-(4-Chloro-3,5-difluorophenyl)-N-(3-(pyridin-4-yl)-1H-pyrazol-5-yl)propanamide]	< 1000 nM
O=C(CCc1cc(F)c(F)c(F)c1)Nc1cc(-c2ccncc2)n[nH]1 [Example 102, N-(3-(Pyridin-4-yl)-1H-pyrazol-5-yl)-3-(3,4,5-trifluorophenyl)propanamide]	< 1000 nM
N#Cc1ccc(CCC(=O)Nc2cc(-c3ccncc3)n[nH]2)cc1F [Example 103]	< 1000 nM
